Laboratory results: ChEMBL document CHEMBL1201862, “PubChem BioAssay data set” (2004)
Structures can show the parent of a compound that is named as a salt. Calls of active or inactive are those of the source.

Assays:
[1] = biological target: Sphingosine 1-phosphate receptor 2 (Homo sapiens, UniProt O95136); test: Dose Response Cell Based Assay for Agonists of the S1P2 Receptor. [Related pubchem assays: 729, 736, 843 ]; type: functional
[2] = biological target: Intestinal-type alkaline phosphatase (Homo sapiens, UniProt P09923); test: inhibition of human intestinal alkaline phosphatase – biochemical, luminescent, uHTS hits, set 2, dose response (AID 488793); type: functional
[3] = biological target: Exodeoxyribonuclease V (Escherichia coli (strain K12), UniProt P04993+P07648+P08394); test: RecBCD inhibition via phage-restricted bacterial growth – absorbance, V66 E. coli, mutant T4 phage, counter-screen for AddAB inhibitor project, dose response (AID 492957); type: functional, cell-based, Escherichia coli str. K-12 substr. MG1655
[4] = Luminescence Cell-Based Dose Response to Identify Activators of 5'UTR Stem-Loop Driven Prion Protein mRNA Translation in H4-C Neuroglioblastoma Cells. [Related pubchem assays: 1829 (Project Summary), 1814 (Primary HTS)]; type: functional
[5] = Luminescence Cell-Based Dose Confirmation to Identify Activators of 5'UTR Stem-Loop Driven Alpha-Synuclein mRNA Translation in H4 Neuroglioblastoma Cells. [Related pubchem assays: 1829 (Project Summary), 1814 (Primary HTS)]; type: functional
[6] = biological target: T1, Rac GTPase-activating protein 1 (Homo sapiens, UniProt Q9H0H5); test: blockers of MgcRacGAP-driven Rac1 GTP hydrolysis – biochemical, ADP Hunter fluorescence, primary and confirmatory, confirmation (AID 624330); type: functional
T1 sequence (Q9H0H5 whole entry): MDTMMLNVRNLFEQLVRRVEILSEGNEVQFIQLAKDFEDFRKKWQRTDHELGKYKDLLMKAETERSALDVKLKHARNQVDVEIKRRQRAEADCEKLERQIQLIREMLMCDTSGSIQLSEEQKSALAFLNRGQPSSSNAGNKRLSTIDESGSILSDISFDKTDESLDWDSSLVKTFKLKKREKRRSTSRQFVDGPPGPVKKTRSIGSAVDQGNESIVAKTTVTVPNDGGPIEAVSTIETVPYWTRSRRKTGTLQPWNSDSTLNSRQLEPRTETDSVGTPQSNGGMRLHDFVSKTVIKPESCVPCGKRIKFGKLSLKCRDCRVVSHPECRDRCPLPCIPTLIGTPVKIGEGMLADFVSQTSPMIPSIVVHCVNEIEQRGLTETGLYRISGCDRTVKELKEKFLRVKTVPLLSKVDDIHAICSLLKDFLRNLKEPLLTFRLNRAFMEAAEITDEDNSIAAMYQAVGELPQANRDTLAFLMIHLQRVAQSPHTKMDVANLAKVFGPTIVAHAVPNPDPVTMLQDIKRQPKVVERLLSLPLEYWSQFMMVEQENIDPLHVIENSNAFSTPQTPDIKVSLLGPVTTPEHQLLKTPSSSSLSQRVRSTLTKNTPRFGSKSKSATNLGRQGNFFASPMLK

[7] = tested on: Streptococcus sp. 'group A'; test: Streptococcus pyogenes SK(-)GAS viability under kanamycin – luminescence, BacTiterGlo, confirmation, counter-screen for streptokinase expression inhibitor project, dose response (AID 1900); type: functional, organism-based
[8] = biological target: Polyadenylate-binding protein 1 (Homo sapiens, UniProt P11940); test: MLLE domain peptide-binding blockers, IC50 – biochemical, fluorescence polarization, FITC-PAM2 peptide, dose response (AID 602259); type: functional; settings: read-out: IC50_Mean
[9] = biological target: Protein kinase C iota type (Homo sapiens, UniProt P41743); type: functional;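 also: measured within a kinome-wide kinase panel, PRKCI as panel member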
[10] = biological target: Mitogen-activated protein kinase kinase kinase 20 (Homo sapiens, UniProt Q9NYL2); type: functional
[11] = biological target: Glycogen synthase kinase-3 alpha (Homo sapiens, UniProt P49840); type: functional;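 also: GSK3A result taken from a broad kinome-wide kinase panel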
[12] = biological target: Calcium/calmodulin-dependent protein kinase type II subunit delta (Homo sapiens, UniProt Q13557); type: functional
[13] = biological target: Death-associated protein kinase 3 (Homo sapiens, UniProt O43293); type: functional;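 also: measured as one member of a kinome-wide profiling panel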
[14] = biological target: STE20-like serine/threonine-protein kinase (Homo sapiens, UniProt Q9H2G2); type: functional
[15] = biological target: Tyrosine-protein kinase ABL1 (Homo sapiens, UniProt P00519); type: functional
[16] = biological target: Ribosomal protein S6 kinase alpha-3 (Homo sapiens, UniProt P51812); type: functional;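 also: measured within a kinome-wide profiling panel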
[17] = biological target: Casein kinase II subunit alpha (Homo sapiens, UniProt P68400); type: functional
[18] = biological target: RAC-gamma serine/threonine-protein kinase (Homo sapiens, UniProt Q9Y243); type: functional
[19] = biological target: Serine/threonine-protein kinase PLK4 (Homo sapiens, UniProt O00444); type: functional;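 also: PLK4 measured as one member of a kinome-wide kinase profiling panel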
[20] = biological target: Mitogen-activated protein kinase 13 (Homo sapiens, UniProt O15264); type: functional
[21] = biological target: Serine/threonine-protein kinase TBK1 (Homo sapiens, UniProt Q9UHD2); test: Navigating the Kinome. Panel member name: TBK1; type: functional
[22] = biological target: Ephrin type-A receptor 2 (Homo sapiens, UniProt P29317); type: functional;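 also: EPHA2 tested as one member of a kinome-wide kinase panel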
[23] = biological target: Dual specificity tyrosine-phosphorylation-regulated kinase 1B (Homo sapiens, UniProt Q9Y463); test: Navigating the Kinome. Panel member name: DYRK1B; type: functional
[24] = biological target: ALK tyrosine kinase receptor (Homo sapiens, UniProt Q9UM73); type: functional;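 also: ALK tested as one member of a kinase panel screen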
[25] = biological target: Cell division cycle 7-related protein kinase (Homo sapiens, UniProt O00311); type: functional;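 also: value obtained from a kinome-wide kinase panel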
[26] = biological target: Ribosomal protein S6 kinase beta-1 (Homo sapiens, UniProt P23443); type: functional;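 also: measured as one member of a kinome-wide profiling panel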
[27] = biological target: MAP/microtubule affinity-regulating kinase 3 (Homo sapiens, UniProt P27448); type: functional;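 also: MARK3 affinity measured as one member of a kinome panel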
[28] = biological target: Casein kinase I isoform gamma-1 (Homo sapiens, UniProt Q9HCP0); type: functional;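 also: measured as the CSNK1G1 member of a kinome profiling panel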
[29] = biological target: Tyrosine-protein kinase Fer (Homo sapiens, UniProt P16591); type: functional;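 also: FER tested as one member of a kinome panel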
[30] = biological target: Dual specificity protein kinase CLK2 (Homo sapiens, UniProt P49760); type: functional
[31] = biological target: Homeodomain-interacting protein kinase 4 (Homo sapiens, UniProt Q8NE63); type: functional
[32] = biological target: Mitogen-activated protein kinase 8 (Homo sapiens, UniProt P45983); type: functional;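 also: value comes from one member of a kinome-wide kinase profiling panel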
[33] = biological target: Inhibitor of nuclear factor kappa-B kinase subunit epsilon (Homo sapiens, UniProt Q14164); test: Navigating the Kinome. Panel member name: IKBKE; type: functional

Sequence of MAP/microtubule affinity-regulating kinase 3 (P27448 whole entry, canonical isoform): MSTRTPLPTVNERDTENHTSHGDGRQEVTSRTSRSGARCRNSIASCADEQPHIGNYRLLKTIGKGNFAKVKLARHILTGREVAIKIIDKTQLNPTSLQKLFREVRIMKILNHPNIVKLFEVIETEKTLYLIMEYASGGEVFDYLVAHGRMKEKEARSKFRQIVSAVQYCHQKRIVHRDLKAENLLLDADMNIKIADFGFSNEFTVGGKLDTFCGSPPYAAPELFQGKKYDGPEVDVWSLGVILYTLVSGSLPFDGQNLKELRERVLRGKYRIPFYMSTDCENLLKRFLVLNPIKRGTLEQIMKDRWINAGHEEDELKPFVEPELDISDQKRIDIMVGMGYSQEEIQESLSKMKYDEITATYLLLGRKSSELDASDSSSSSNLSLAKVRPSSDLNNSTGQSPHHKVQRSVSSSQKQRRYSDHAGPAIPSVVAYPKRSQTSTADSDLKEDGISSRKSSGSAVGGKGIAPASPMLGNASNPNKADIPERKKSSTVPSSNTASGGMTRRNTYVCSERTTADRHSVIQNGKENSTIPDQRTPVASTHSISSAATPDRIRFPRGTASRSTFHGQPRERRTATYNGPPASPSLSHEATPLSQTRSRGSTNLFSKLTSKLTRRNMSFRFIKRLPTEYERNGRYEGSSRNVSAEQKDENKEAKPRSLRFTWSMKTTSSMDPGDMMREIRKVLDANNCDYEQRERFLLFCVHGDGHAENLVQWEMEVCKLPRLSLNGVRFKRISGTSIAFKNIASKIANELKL
Sequence of Casein kinase II subunit alpha (P68400 whole entry): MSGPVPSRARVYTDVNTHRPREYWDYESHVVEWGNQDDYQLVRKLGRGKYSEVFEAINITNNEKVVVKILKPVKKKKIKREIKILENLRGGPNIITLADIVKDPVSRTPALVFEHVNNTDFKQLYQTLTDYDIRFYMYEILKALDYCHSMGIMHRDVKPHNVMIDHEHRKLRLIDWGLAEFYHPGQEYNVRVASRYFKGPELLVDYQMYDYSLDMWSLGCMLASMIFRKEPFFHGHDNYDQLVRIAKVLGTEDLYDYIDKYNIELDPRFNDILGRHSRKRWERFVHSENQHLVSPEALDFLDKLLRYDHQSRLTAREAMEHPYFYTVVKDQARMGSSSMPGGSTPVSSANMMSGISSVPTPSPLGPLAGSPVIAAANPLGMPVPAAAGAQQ
Sequence of Tyrosine-protein kinase Fer (P16591 whole entry): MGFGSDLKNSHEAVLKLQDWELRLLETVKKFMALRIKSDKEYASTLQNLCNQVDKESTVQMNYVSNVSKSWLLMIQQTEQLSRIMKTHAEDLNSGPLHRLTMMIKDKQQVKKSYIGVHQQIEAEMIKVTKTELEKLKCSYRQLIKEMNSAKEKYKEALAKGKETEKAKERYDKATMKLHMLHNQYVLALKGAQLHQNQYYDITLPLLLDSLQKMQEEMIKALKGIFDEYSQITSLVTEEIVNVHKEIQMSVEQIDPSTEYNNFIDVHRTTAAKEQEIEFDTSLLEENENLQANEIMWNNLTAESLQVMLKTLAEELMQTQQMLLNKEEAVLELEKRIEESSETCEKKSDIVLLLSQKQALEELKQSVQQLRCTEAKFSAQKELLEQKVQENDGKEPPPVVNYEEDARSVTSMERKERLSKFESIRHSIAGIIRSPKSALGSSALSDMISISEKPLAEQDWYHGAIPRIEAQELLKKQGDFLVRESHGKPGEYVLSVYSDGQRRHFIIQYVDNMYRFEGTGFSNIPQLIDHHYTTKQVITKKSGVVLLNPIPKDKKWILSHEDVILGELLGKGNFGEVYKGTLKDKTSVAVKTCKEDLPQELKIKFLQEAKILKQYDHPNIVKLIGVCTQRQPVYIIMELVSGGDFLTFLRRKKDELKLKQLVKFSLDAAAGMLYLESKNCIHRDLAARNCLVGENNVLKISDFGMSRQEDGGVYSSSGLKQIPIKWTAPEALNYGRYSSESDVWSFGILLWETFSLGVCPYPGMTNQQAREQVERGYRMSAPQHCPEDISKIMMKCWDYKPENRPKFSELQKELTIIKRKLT
Sequence of STE20-like serine/threonine-protein kinase (Q9H2G2 whole entry): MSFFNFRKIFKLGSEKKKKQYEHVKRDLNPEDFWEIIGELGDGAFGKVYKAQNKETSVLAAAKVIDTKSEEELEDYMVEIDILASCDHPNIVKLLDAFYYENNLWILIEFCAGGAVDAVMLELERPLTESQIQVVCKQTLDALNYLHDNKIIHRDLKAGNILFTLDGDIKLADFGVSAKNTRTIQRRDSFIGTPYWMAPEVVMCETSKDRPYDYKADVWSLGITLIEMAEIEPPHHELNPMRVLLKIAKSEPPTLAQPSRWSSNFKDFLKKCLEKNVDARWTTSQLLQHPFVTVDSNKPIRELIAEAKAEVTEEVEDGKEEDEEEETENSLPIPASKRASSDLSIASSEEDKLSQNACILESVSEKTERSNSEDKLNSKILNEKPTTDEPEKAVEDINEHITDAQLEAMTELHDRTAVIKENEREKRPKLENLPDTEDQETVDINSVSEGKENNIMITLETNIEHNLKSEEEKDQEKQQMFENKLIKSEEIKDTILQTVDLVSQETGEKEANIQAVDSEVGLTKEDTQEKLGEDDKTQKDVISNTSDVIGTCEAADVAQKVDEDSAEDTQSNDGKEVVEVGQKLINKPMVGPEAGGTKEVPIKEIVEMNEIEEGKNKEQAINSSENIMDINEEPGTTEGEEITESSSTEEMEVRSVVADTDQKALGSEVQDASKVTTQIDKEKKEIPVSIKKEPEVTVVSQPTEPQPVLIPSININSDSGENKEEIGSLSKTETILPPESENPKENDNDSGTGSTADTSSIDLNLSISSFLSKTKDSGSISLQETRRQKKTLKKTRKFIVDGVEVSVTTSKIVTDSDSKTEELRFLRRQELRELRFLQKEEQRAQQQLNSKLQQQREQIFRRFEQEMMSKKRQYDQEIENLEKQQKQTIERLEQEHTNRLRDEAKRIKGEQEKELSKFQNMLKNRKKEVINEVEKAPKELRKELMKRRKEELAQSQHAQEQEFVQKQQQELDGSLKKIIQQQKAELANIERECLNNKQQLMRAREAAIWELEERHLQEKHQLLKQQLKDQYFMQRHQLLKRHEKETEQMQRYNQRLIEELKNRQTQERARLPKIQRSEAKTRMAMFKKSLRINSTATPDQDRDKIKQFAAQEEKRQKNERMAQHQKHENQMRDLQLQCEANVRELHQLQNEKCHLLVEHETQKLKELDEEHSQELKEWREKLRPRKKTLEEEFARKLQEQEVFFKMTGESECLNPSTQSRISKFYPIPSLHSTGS
Sequence of Homeodomain-interacting protein kinase 4 (Q8NE63 whole entry): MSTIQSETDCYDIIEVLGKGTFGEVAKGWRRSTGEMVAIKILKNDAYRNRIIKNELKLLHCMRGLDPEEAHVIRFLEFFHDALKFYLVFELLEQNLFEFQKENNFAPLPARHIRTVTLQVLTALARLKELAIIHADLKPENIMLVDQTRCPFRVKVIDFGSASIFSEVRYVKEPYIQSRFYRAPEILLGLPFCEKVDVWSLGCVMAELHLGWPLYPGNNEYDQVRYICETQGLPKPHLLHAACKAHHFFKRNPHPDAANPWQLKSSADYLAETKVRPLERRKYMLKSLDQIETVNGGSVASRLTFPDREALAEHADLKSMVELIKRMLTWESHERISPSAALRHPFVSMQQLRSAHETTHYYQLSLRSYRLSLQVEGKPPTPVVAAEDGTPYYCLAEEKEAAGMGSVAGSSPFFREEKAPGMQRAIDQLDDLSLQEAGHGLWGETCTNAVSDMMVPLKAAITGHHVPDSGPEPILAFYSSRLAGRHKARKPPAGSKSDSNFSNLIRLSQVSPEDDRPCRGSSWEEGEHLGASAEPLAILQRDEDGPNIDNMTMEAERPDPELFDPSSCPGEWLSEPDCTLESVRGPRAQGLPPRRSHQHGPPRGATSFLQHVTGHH
Sequence of Calcium/calmodulin-dependent protein kinase type II subunit delta (Q13557 whole entry): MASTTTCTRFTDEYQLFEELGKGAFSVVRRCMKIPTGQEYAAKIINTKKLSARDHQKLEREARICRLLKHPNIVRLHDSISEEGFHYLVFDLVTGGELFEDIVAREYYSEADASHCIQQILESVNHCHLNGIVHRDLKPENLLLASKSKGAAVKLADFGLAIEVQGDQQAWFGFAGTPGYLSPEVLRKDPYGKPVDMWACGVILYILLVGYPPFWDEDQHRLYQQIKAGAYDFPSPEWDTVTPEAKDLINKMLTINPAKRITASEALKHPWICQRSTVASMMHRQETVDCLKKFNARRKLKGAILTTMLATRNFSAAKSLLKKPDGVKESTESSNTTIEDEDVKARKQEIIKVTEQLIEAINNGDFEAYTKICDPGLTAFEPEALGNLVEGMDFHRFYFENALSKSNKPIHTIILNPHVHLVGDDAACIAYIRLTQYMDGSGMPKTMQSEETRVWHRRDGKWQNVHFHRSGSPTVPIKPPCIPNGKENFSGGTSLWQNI
Sequence of Cell division cycle 7-related protein kinase (O00311 whole entry): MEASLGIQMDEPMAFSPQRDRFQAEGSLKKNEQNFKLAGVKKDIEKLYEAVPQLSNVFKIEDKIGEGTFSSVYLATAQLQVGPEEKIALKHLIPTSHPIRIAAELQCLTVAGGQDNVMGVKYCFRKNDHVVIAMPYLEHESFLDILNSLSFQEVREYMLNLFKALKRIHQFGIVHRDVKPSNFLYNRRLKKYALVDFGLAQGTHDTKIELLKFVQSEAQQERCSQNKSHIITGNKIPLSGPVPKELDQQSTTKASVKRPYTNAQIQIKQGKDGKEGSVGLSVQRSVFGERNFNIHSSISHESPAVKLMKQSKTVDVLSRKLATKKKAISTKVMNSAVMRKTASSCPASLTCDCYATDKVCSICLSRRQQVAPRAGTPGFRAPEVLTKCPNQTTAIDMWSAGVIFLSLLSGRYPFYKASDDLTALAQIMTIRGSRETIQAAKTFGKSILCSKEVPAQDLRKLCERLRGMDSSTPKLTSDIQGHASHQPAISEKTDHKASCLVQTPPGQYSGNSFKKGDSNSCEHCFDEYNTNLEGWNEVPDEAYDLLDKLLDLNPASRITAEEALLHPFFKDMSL

CCC(C)n1c(NC(=O)c2ccccc2)c(C#N)c2nc3ccccc3nc21 (stereo not drawn)
EC50 [1]: 4.6 µM (active)

CCN1/C(=C\c2ccc3ccccc3[n+]2CC)Sc2cc(C)ccc21
IC50 [2]: 23.5 µM (active)
IC50 [3]: 72.8 µM (inactive)
EC50 [4]: > 12 µM (not active)
EC50 [5]: > 12 µM (not active)
IC50 [6]: 81.3 µM (active)

CCCCCCCCCCOC(=O)C[n+]1c(COc2ccc(C)cc2)n(C)c2ccccc21
EC50 [7]: 6.2 µM (active)

CC[C@@H](CO)NC(=O)[C@@H]1C=C2c3cccc4c3c(cn4C)C[C@H]2N(C)C1 [METHYSERGIDE MALEATE]
IC50 [8]: 32.2 µM (inactive)

CN1CCN(c2nc(C3=C(c4c[nH]c5ccccc45)C(=O)NC3=O)c3ccccc3n2)CC1 [SOTRASTAURIN]
Ki [9]: 0.398 µM (active)
Ki [10]: > 7.94 µM (inactive)
Ki [11]: 0.158 µM (active)
Ki [12]: 0.0316 µM (active)
Ki [13]: > 3.16 µM (inactive)
Ki [14]: 0.126 µM (active)
Ki [15]: > 1.58 µM (inactive)
Ki [16]: 0.126 µM (active)
Ki [17]: > 6.31 µM (inactive)
Ki [18]: > 10 µM (inactive)
Ki [19]: > 3.98 µM (inactive)
Ki [20]: > 7.94 µM (inactive)
Ki [21]: > 3.16 µM (inactive)
Ki [22]: > 3.16 µM (inactive)
Ki [23]: > 2.51 µM (inactive)
Ki [24]: > 1.58 µM (inactive)
Ki [25]: > 1.26 µM (inactive)
Ki [26]: 0.158 µM (active)
Ki [27]: 1 µM (active)
Ki [28]: > 6.31 µM (inactive)
Ki [29]: 0.316 µM (active)
Ki [30]: > 2.51 µM (inactive)
Ki [31]: > 7.94 µM (inactive)
Ki [32]: > 3.98 µM (inactive)
Ki [33]: > 3.16 µM (inactive)
